From patent US5219825A, “Synergistic herbicidal compositions comprising herbicides which generate toxic oxygen radicals and chelating agents which inhibit their detoxification” (Yeda Research and Development Co., Ltd., priority 1986, dated 1993)

Tests used:
weed species = details: cited from earlier work
[1] = system: Conyza bonariensis paraquat sensitive (low herbicide requiring) biotype; experiment: Malonyldialdehyde in tissue (lipoxidation, membrane damage) after spraying; format: in vivo; details: atrazine 0 μM; DDC 0.5% alone; low herbicide requiring biotype; untreated control = 100
Experimental: Seeds of two biotypes of Conyza bonariensis (L.) Cronq. (synonym C. linifolia) were obtained from Egypt. The paraquat sensitive biotype was gathered near Alexendria and seeds of the resistant type from the Tahrir irrigation district. They were obtained from Dr. Martin Parham in England. Seeds were germinated in a growth room with a 14 h light period at 25° C. Plants were transferred out of doors 24 h before being sprayed. The phytotoxicity of three herbicides representative of the three different modes of generating active oxygen species known at present. Commercial paraquat (Gramoxone-ICI Plant Protection Ltd) was formulated with 0.1% (w/v) Tween-20 (a non-ionic surfactant) for spraying. The response to the range of 10^-5 M to 10^-2 M paraquat was measured by spraying two plants per concentration to run-off in the early morning. All plants were exposed to sunlight for at least 13 h (1300 μE.m^-2s^-1 photosynthetically active radiation (PAR) at mid day). Commercial acifluorfen (Blazer, Rohm, and Hass, Philadelphia, Pa., USA) to which was added 0.25% Tween-20 was sprayed to run-off. The response to spraying was measured as with paraquat 24 h after spraying. Commercial atrazine (Atranex 50 WP-Agan) was sprayed at various rates in 0.25% Tween 20 to run off. Fully expanded, 8 to 10 cm long leaves from plants in the rosette stage were used in all experiments. Phytotoxicity of acifluorfen and paraquat was measured as CO2 fixation 24 h later as follows: Detached leaves were placed on wet filter paper in a sealed chamber with 5μ Ci^14 C-sodium bicarbonate. Tartaric acid was remotely dripped on the sodium bicarbonate to release ^14 CO2. Leaves were illuminated with […] (PAR) for 30 min. Eighty percent acetone was added and the mixture put under strong light to photobleach pigments and evaporate the acetone. A scintillation mixture of Lumax:xylene (45:55) was added to the leaves and remaining water. The samples were counted and the data expressed as DPM.cm^-2. Area was measured with a planimeter from photocopies of the leaves made prior to photosynthesis measurements. Phytotoxicity of atrazine was measured as the elevated level of malonyldialdehyde in the tissue. Malonyldialdehyde (as measured with thiobarbituric acid according to Dodge and Gillham (Asp. Appl. Biol 11 97 (1986)) is a measurement of lipoxidation of unsaturated fatty acids, and provides an excellent estimation of damage by active oxygen species.
^b membrane damage was measured as malonyldialdehyde release
Similarly, both the paraquat resistant and sensitive biotypes of Conyza bonariensis were treated with two other oxidant generating herbicides. Atrazine (of the triazine group) is the most widely used oxidant generating herbicides in agriculture. We used various dilutions of a commercial wettable powder (Atranex 50WP-Agan Chemicals) to which we added 0.5% DDC. The effects were scored 24 h later. […] We also tested to see whether acifluorfen, a nitro diphenyl ether herbicide would be synergized. It is generally agreed that light and oxygen are required for its action via oxidant damage. We sprayed a commercial formulation of acifluorfen (Blazer, Rohm and Haas) to which were added 0.25% Tween-20 detergent, with and without DDC. The effects were scored 24 h later.

## C[n+]1ccc(-c2cc[n+](C)cc2)cc1 [paraquat, 1,1'-dimethyl-4-4'bipyridium ion]
Weed species; Bromis inermis, Amaranthus retroflexus and wheat
  rate at which species are killed: 0.01 kg/ha
Weed species; Digitaria, Chenopodium album, Sinapis arvensis and Galium aparine
  rate required for good control: 3 kg/ha

## CCN(CC)C(=S)[S-].[Na+] [DDC, Sodium diethyldithiocarbamate]
[1]
  membrane damage (malonyldialdehyde release): 125
